Results taken from ChEMBL document CHEMBL1201862, “PubChem BioAssay data set” (2004).
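How tested: cells in 96-well plates exposed to compound for 48 hours at five concentrations. Here, GI50 denotes the concentration required for 50% inhibition of growth.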 Active and inactive are the calls of the source. Cut-off read from the data, not from the text of the source: active = GI50 up to about 1.1 µM and inactive = higher.

What was measured:
Assay in all cases: growth of human tumour cells (NCI), 48 h
HT-29 = test system: HT-29
OVCAR-4 = test system: OVCAR-4
IGROV-1 = test system: IGROV-1
NCI-H460 = test system: NCI-H460
COLO 205 = test system: COLO 205
K562 = test system: K562
SK-MEL-28 = test system: SK-MEL-28
HL-60 = test system: HL-60
HOP-92 = test system: HOP-92
OVCAR-8 = test system: OVCAR-8
SW-620 = test system: SW-620
MOLT-4 = test system: MOLT-4
UACC-257 = test system: UACC-257
HCT-15 = test system: HCT-15
UO-31 = test system: UO-31
SN12C = test system: SN12C
LOX IMVI = test system: LOX IMVI
NCI-H23 = test system: NCI-H23
U-251 = test system: U-251
HCT-116 = test system: HCT-116

SMILES | GI50 (HT-29) | GI50 (OVCAR-4) | GI50 (IGROV-1) | GI50 (NCI-H460) | GI50 (COLO 205) | GI50 (K562) | GI50 (SK-MEL-28) | GI50 (HL-60) | GI50 (HOP-92) | GI50 (OVCAR-8) | GI50 (SW-620) | GI50 (MOLT-4) | GI50 (UACC-257) | GI50 (HCT-15) | GI50 (UO-31) | GI50 (SN12C) | GI50 (LOX IMVI) | GI50 (NCI-H23) | GI50 (U-251) | GI50 (HCT-116)
O=C(O)C12CC3CC(C1)C2C=C3P(=O)(O)O (stereo not given) | > 100 µM (inactive) | > 100 µM (inactive) | > 100 µM (inactive) | > 100 µM (inactive) | > 100 µM (inactive) | > 100 µM (inactive) | > 100 µM (inactive) | > 100 µM (inactive) | > 100 µM (inactive) | > 100 µM (inactive) | > 100 µM (inactive) | > 100 µM (inactive) | > 100 µM (inactive) | > 100 µM | > 100 µM (inactive) | > 100 µM (inactive) | > 100 µM (inactive) | > 100 µM (inactive) | > 100 µM (inactive) | > 100 µM (inactive)
CN(C)CCNC(=O)c1cccc2nc(-c3ccccc3)oc12 | 31 µM (inactive) | 26.5 µM (inactive) | 44 µM (inactive) | 30.4 µM (inactive) | 17.3 µM (inactive) | 1.94 µM (inactive) | 60.1 µM (inactive) | 8.18 µM (inactive) | 13 µM (inactive) | 35.9 µM (inactive) | 39.2 µM (inactive) | 10.9 µM (inactive) | 36.3 µM (inactive) | 43.6 µM | 17.4 µM (inactive) | 41.1 µM (inactive) | 26.5 µM (inactive) | 48.3 µM (inactive) | 46.9 µM (inactive) | 32.1 µM (inactive)
CCOC(=O)C1=NN(c2ccccc2)C2=CC(C)=NN(C)C(=S)N21 | > 100 µM (inactive) | > 100 µM (inactive) | > 100 µM (inactive) | 48.5 µM (inactive) | > 100 µM (inactive) | > 100 µM (inactive) | > 100 µM (inactive) | > 100 µM (inactive) | > 100 µM (inactive) | > 100 µM (inactive) | > 100 µM (inactive) | > 100 µM (inactive) | > 100 µM (inactive) | > 100 µM | > 100 µM (inactive) | > 100 µM (inactive) | > 100 µM (inactive) | > 100 µM (inactive) | > 100 µM (inactive) | > 100 µM (inactive)
Cc1cc(O)nc(NN2C(Cl)C(=O)C2c2c(O)ccc3ccccc23)n1 (stereo not given) | 25 µM (inactive) | 17.3 µM (inactive) | 38.5 µM (inactive) | 15 µM (inactive) | 25.9 µM (inactive) | 23.2 µM (inactive) | 19.5 µM (inactive) | 14.1 µM (inactive) | 16.4 µM (inactive) | 27.4 µM (inactive) | 30.2 µM (inactive) | 16.3 µM (inactive) | 31.2 µM (inactive) | 15.6 µM | 26.1 µM (inactive) | 21.7 µM (inactive) | 13.7 µM (inactive) | 16.4 µM (inactive) | 21.9 µM (inactive) | 17.3 µM (inactive)
CCP(=S)(CC)CCl | > 100 µM (inactive) | > 100 µM (inactive) | > 100 µM (inactive) | > 100 µM (inactive) | > 100 µM (inactive) | > 100 µM (inactive) | > 100 µM (inactive) | > 100 µM (inactive) | 73.5 µM (inactive) | > 100 µM (inactive) | > 100 µM (inactive) | > 10 µM (inactive) | > 100 µM (inactive) | > 100 µM | > 100 µM (inactive) | > 100 µM (inactive) | > 100 µM (inactive) | > 100 µM (inactive) | > 100 µM (inactive) | > 100 µM (inactive)
CC(=O)OC1CC2(O)C(CCC3(C)C(c4ccc(=O)oc4)CCC32O)C2(C)CCC(O)C=C12 (stereo not given) | 0.0239 µM (active) | 0.0206 µM (active) | 0.0195 µM (active) | 0.00454 µM (active) | 0.0385 µM (active) | 0.0375 µM (active) | 0.0375 µM (active) | 0.00455 µM (active) | 0.0604 µM (active) | 0.0152 µM (active) | 0.0375 µM (active) | 0.00182 µM (active) | 0.0242 µM (active) | 0.0239 µM | 0.0297 µM (active) | 0.00462 µM (active) | 0.0191 µM (active) | 0.00246 µM (active) | 0.0169 µM (active) | 0.0375 µM (active)
